Here are results for 1 compound from patent US8822486B2, “Spiropiperidine compounds” (Eli Lilly and Company, priority 2009, dated 2014).

In experiment [1] the test system is primary rodent pancreatic islets of Langerhans. As to the kind of experiment: GDIS assay in primary rodent pancreatic islets. The settings on record: male SD rat islets; different concentrations; compared to 11.2 mM glucose alone; 90 min. It counts as cell-based. The source says:
Because activation of GPR40 is known to result in insulin secretion which is dependent on high glucose concentrations, two separate assay systems (insulinoma cell line and primary rodent islets) are developed to further characterize compounds that are known to increase intracellular calcium in the GPR40 primary assay discussed above.
GDIS assays using primary rodent pancreatic islets of Langerhans are also used to characterize exemplified compounds. Pancreatic islets are isolated from male SD (Sprague Dawley) rats by collagenase digestion and Histopaque density gradient separation. The islets are cultured overnight in RPMI-1640 medium with GlutaMAXn (stabilized, dipeptide form of L-glutamine (Invitrogen catalog #61870-010)) to facilitate recovery from the isolation process. Insulin secretion is determined by a 90 minute incubation in EBSS (Earle's Balances Salt Solution) buffer in a 48-well plate. Briefly, islets are first preincubated in EBSS with 2.8 mM glucose for 30 min and are then transferred to a 48-well plate (four islets/well) containing 150 μl 2.8 mM glucose and incubated with 150 μl of EBSS with 2.8 or 11.2 mM glucose in the presence or absence of test compounds for 90 minutes. The buffer is removed from the wells at the end of the incubation and assayed for insulin levels using the Rat Insulin ELISA kit (Mercodia). […]

The target in the next experiment is T1, human GPR40 (Homo sapiens, UniProt O14842).
T1 construct: expressed in transfected cells; host or cells: HEK293
Kind of experiment: Calcium Flux Primary Assay. It counts as cell-based. As to the method:
Calcium Flux Primary Assay
HEK293 cells over expressing the human GPR40 cDNA maintained in Dulbecco's modified Eagle's medium with F12 medium in 3:1 ratio supplemented with 10% FBS and 800 μg/ml geneticin at 37° C. and 5% CO2 are employed for the study. Agonist assays are performed using a Calcium 4 Dye assay kit (Molecular Devices) in the presence (0.1%) or absence of fatty acid free BSA in the assay buffer (1×HBSS (Hank's Balanced Salt Solution) & 20 mM HEPES (4-(2-hydroxyethyl)-1-piperazineethanesulfonic acid). Receptor activation is measured as an increase in intracellular calcium using the Fluorometric Imaging Plate Reader (FLIPR). Maximum change in fluorescence over the base line is used to determine agonist response. EC50 (effective concentration at half the maximal response) value of the compound is calculated using Excel Fit software (version 4; IDBS) by plotting concentration vs relative fluorescence units (RFUs).
On the technique in general: Calcium assays in cells follow changes in intracellular calcium, usually with a dye or a luminescent sensor.

Structures are written as SMILES.

T1 sequence (O14842 whole entry): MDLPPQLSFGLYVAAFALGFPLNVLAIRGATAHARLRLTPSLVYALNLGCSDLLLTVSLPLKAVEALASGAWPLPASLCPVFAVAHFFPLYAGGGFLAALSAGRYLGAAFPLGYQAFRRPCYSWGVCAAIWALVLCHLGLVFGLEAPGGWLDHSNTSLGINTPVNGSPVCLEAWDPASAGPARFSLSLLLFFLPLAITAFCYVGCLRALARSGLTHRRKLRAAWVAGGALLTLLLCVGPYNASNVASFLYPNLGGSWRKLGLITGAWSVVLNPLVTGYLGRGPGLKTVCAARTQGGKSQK

In general, EC50 refers to the concentration at which the effect is half-maximal. Consider `CC#C[C@@H](CC(=O)O)c1ccc(OCc2ccc(CN3CCC4(C=Cc5ccccc54)CC3)s2)cc1` [Example 1, (3S)-3-[4-[[5-(Spiro[indene-1,4′-piperidine]-1′-ylmethyl)-2-thienyl]methoxy]phenyl]hex-4-ynoic acid], for which the increase in insulin in experiment [1] was 2- to 4 fold. The concentration for a half-maximal effect (EC50) on human GPR40 (HEK293 cells over expressing human GPR40, intracellular calcium, FLIPR) is 114 nM. Further, at human GPR40 (maximal response compared to the natural ligand, linoleic acid), the Percent efficacy is on record as 91+/−9%.
